According to PMC7434893 (British Journal of Cancer, 2020):
In brackets after ≈: the same amount, converted by molar mass.

What was measured:
[1] = test system: human colon cancer SW480 cells; settings: cited from earlier work
SF-295 = experiment: 8-day growth inhibition; assay type: cell-based; settings: GBM, SF-295, 8-day assay
MFE-296 = experiment: 8-day growth inhibition; assay type: cell-based; settings: Endometrial, MFE-296, 8-day assay
HT-1080 = experiment: 8-day growth inhibition; assay type: cell-based; settings: Fibrosarcoma, HT-1080, 8-day assay
IM-9 = experiment: 8-day growth inhibition; assay type: cell-based; settings: B lymphoblast, IM-9, 8-day assay
T47D = experiment: 8-day growth inhibition; assay type: cell-based; settings: Breast, 8-day assay
Pfeiffer = experiment: 8-day growth inhibition; assay type: cell-based; settings: DLBCL (GC), 8-day assay
PARP [2] = experiment: PARP inhibition by PAR levels in PBMCs (ELISA); assay type: in vivo, human
Method: Inhibition of PARP activity was measured by quantifying PAR in PBMCs using an enzyme-linked immunosorbent assay (HT PARP in vivo Pharmacodynamic Assay II kit). PAR levels in PBMCs and the percentage change from baseline were summarised by dose and nominal sampling time point.

Namalwa = experiment: 8-day growth inhibition; assay type: cell-based; settings: Burkitt's lymphoma, 8-day assay
KG-1 = experiment: 8-day growth inhibition; assay type: cell-based; settings: AML, KG-1, 8-day assay
RL95-2 = experiment: 8-day growth inhibition; assay type: cell-based; settings: Endometrial, RL95-2, 8-day assay
HCC1806 = experiment: 8-day growth inhibition; assay type: cell-based; settings: Breast, HCC1806, 8-day assay
MV-4-11 = experiment: 8-day growth inhibition; assay type: cell-based; settings: AML, MV-4-11, 8-day assay
MFE-280 = experiment: 8-day growth inhibition; assay type: cell-based; settings: Endometrial, MFE-280, 8-day assay
HCT-15 = experiment: 8-day growth inhibition; assay type: cell-based; settings: Colon, HCT-15, 8-day assay
Hs578T = experiment: 8-day growth inhibition; assay type: cell-based; settings: Breast, 8-day assay
C3A = experiment: 8-day growth inhibition; assay type: cell-based; settings: HCC, 8-day assay
HT = experiment: 8-day growth inhibition; assay type: cell-based; settings: DLBCL (GC), 8-day assay
ARH-77 = experiment: 8-day growth inhibition; assay type: cell-based; settings: Myeloma, ARH-77, 8-day assay
HEC-1A = experiment: 8-day growth inhibition; assay type: cell-based; settings: Endometrial, 8-day assay
NCI-H69 = experiment: 8-day growth inhibition; assay type: cell-based; settings: SCLC, NCI-H69, 8-day assay
HCC1143 = experiment: 8-day growth inhibition; assay type: cell-based; settings: Breast, HCC1143, 8-day assay
PARP [3] = experiment: Sigmoidal inhibitory indirect-response PK/PD model of PAR formation; assay type: in vivo, human; settings: model estimate
Method: The PD measurement utilised in the PK/PD model was the percentage inhibition of the formation of PAR, a marker for PARP activity,[19] which was calculated as % inhibition = […], where baseline was defined as the PAR response at time 0 on day –2.
The model parameters from the PK/PD analysis were then used to simulate the expected PAR responses of additional dosing regimens of E7449. All PK/PD modelling and subsequent response simulations were performed using Phoenix WinNonlin®, version 7.

RPMI-8226 = experiment: 8-day growth inhibition; assay type: cell-based; settings: Myeloma, RPMI-8226, 8-day assay
DU145 = experiment: 8-day growth inhibition; assay type: cell-based; settings: Prostate, DU145, 8-day assay
sVEGFR2 = experiment: Serum biomarker analysis, sVEGFR2; assay type: in vivo, human; settings: data not shown
Method: Two pre-dose, multiple post-dose and off-treatment time points were included. Serum samples were tested for concentrations of soluble vascular endothelial growth factor receptor (VEGFR)2, VEGFR3 and soluble interleukin-2 receptor α (sIL-2Rα/CD25), using the bead-based Human Soluble Cytokine Receptor Panel assay kit. The two baseline samples (days −3 and −2 prior to dosing) were averaged, and the mean was used to calculate percent change at each of the post-dosing time points.

HEC-6 = experiment: 8-day growth inhibition; assay type: cell-based; settings: Endometrial, HEC-6, 8-day assay
KLE = experiment: 8-day growth inhibition; assay type: cell-based; settings: Endometrial, 8-day assay
SNU-423 = experiment: 8-day growth inhibition; assay type: cell-based; settings: HCC, SNU-423, 8-day assay
U266 = experiment: 8-day growth inhibition; assay type: cell-based; settings: Myeloma, U266, 8-day assay
JVM-2 = experiment: 8-day growth inhibition; assay type: cell-based; settings: MCL, JVM-2, 8-day assay
MDA-MB-231 = experiment: 8-day growth inhibition; assay type: cell-based; settings: Breast, MDA-MB-231, 8-day assay
HEC-151 = experiment: 8-day growth inhibition; assay type: cell-based; settings: Endometrial, HEC-151, 8-day assay
SNG-M = experiment: 8-day growth inhibition; assay type: cell-based; settings: Endometrial, 8-day assay
JVM-13 = experiment: 8-day growth inhibition; assay type: cell-based; settings: MCL, JVM-13, 8-day assay
U937 = experiment: 8-day growth inhibition; assay type: cell-based; settings: Histiocytic lymphoma - monocytic, U937, 8-day assay
Jeko-1 = experiment: 8-day growth inhibition; assay type: cell-based; settings: MCL, Jeko-1, 8-day assay

In the case of `O=c1[nH]nc2c3c(cccc13)N=C(CN1Cc3ccccc3C1)N2` [E7449], the “Active and total β-catenin” value [1] is given as “concomitant reduction”, the Axin2 levels [1] is given as “significant increase” and the IC50 (SF-295) is given as 2600 nM. For the same compound, the IC50 (MFE-296) was 670 nM, the IC50 (HT-1080) was 830 nM and the IC50 (IM-9) was 2100 nM. For the same compound, the IC50 (T47D) was 7800 nM, the IC50 (Pfeiffer) was 710 nM and the “Time of maximal decrease in PAR levels after administration” value (PARP [2]; 600 mg, fasted cohort) was 2 to 4 h. The “Time of maximal decrease in PAR levels post treatment” value (PARP [2]; 600 mg, fed cohort) was 4 to 8 h, the “Decrease in PAR levels” value (PARP [2]; 24-h post-dose time points (cycle 1, days 1, 7, 8 and 16)) was at least 70% and the “Population mean PARP inhibition” value (PARP [2]; MTD 600 mg once daily, steady state, PAR in PBMCs) was “approximately 90%”. For the same compound, the “Inhibition in PAR levels from baseline” value (PARP [2]; food-effect cohorts, 600 mg) was “up to 90%”, the IC50 (Namalwa) was 2500 nM and the IC50 (KG-1) was 2000 nM. It also gave an IC50 (RL95-2) of 2130 nM, an IC50 (HCC1806) of 1800 nM and an IC50 (MV-4-11) of 950 nM. The IC50 (MFE-280) was 770 nM, the IC50 (HCT-15) was 2200 nM and the IC50 (Hs578T) was 9600 nM. It also gave an IC50 (C3A) of 2540 nM, an IC50 (HT) of 660 nM and an IC50 (ARH-77) of 3200 nM. It also gave an IC50 (HEC-1A) of 2960 nM, an IC50 (NCI-H69) of 1330 nM and an IC50 (HCC1143) of 3700 nM. The kout (PARP [3]) was 0.52 h⁻¹, the EC50 (PARP [3]; plasma concentration, inhibition of PAR formation in PBMCs) was 0.11 µg/mL (≈ 0.347 µM) and the kin (PARP [3]; rate of formation of PAR) was 35.5 h⁻¹. For the same compound, the IC50 (RPMI-8226) was 9300 nM, the IC50 (DU145) was 1800 nM and the “Change in serum concentration of sVEGFR2 from baseline” value (sVEGFR2) was “No significant changes”. For the same compound, the IC50 (HEC-6) was 1880 nM, the IC50 (KLE) was 2590 nM and the IC50 (SNU-423) was 19000 nM. For the same compound, the IC50 (U266) was 6700 nM, the IC50 (JVM-2) was 14000 nM and the IC50 (MDA-MB-231) was 25000 nM. The IC50 (HEC-151) was 1440 nM, the IC50 (SNG-M) was 1360 nM and the IC50 (JVM-13) was 7300 nM. The IC50 (U937) was 2700 nM and the IC50 (Jeko-1) was 1900 nM.
